These results are taken from US5202339A, “Hydantoin derivatives” (Mochida Pharmaceutical Co., Ltd., priority 1987, dated 1993).

Assay [1] relates to Streptozotocin-Diabetic Rats. Briefly: Hypoglycemic Effects in Streptozotocin-Diabetic Rats (Experimental Example 4). The format is in vivo, rat (male Wistar). The following applies: Rattus norvegicus; STZ-diabetic rats, 100 mg/kg oral, 6 hrs after administration; read-out: Lowering rate of serum glucose (%). As for the experimental part: Diabetic rats were produced according to the method of Junod et al. (A. Junod et al., J. Clin. Invest., 48, 2129 (1969)). Briefly, male Wistar rats were given 26.5 mg/kg of streptozotocin (STZ) intravenously. Four days later, the rats with serum glucose levels of between 400 and 500 mg/dl were used. After being fasted for 4 hrs, groups of 5 diabetic rats were orally administered with the compounds of the present invention or gliclazide in a dose of 100 mg/kg. Blood sample were collected from the orbital vein before and 6 hrs after the administration. Serum glucose levels were determined by the enzymatic method with an autoanalyzer (Cobas Fara®, Roche).

Assay [2] concerns the target T1, bovine lens aldose reductase (Bos taurus, UniProt P16116).
T1 construct: bovine lens aldose reductase preparation was used; from tissue; host or cells: bovine lens
Kind of assay: inhibitory activity on bovine lens aldose reductase (Experimental Example 2). The format is biochemical. The following applies: for IC50: pH 6.2, 10 mM DL-glyceraldehyde, 0.16 mM NADPH; for potency compared with compound 13 and 15: in words. As for the experimental part: Assays were performed in 0.1M phosphate buffer (pH 6.2) containing 0.4M ammonium sulfate, 10 mM DL-glyceraldehyde, 0.16 mM nicotinamide adenine dinucleotide phosphate, reduced form (NADPH) and aldose reductase (0.010-0.016 units) in a total volume of 1.0 ml. To this mixture was added 10 μl of the solution of each hydantoin derivative to be tested, and the decrease in absorbance at 340 nm was measured with a spectrophotometer.

Turning to `O=C1CN(S(=O)(=O)c2cc3ccccc3s2)C(=O)N1` [Compound 16, 1-(benzo[b]thiophen-2-ylsulfonyl)hydantoin], in assay [1], the inhibition in vivo at 100 mg/kg worked out at 33.5%. In assay [2], this compound yielded a 50% inhibitory concentration (IC50) of 390 nM.

`O=C1CN(S(=O)(=O)c2sc3ccccc3c2Cl)C(=O)N1` [Compound 17, 1-(3-chlorobenzo[b]thiophen-2-yl-sulfonyl)hydantoin]: in assay [2], the “potency compared with compound 13 and 15” value was “as potent as compound 13 and 15”; the IC50 came to 120 nM.

Consider `O=C1CN(S(=O)(=O)c2cc3cc(Cl)ccc3s2)C(=O)N1` [Compound 18, 1-(5-chlorobenzo[b]thiophen-2-yl-sulfonyl)hydantoin], for which, in assay [2], the “potency compared with compound 13 and 15” value was “as potent as compound 13 and 15”; the half-maximal inhibitory concentration (IC50) is 240 nM.

Consider `O=C1CN(S(=O)(=O)c2nc3ccccc3s2)C(=O)N1` [Compound 22, 1-(benzothiazol-2-ylsulfonyl)hydantoin], for which the inhibition in vivo at 100 mg/kg in assay [1] was 15%. Inhibition in assay [2] was half-maximal at 340 nM (IC50).

For the compound `O=C1CN(S(=O)(=O)c2ccc3oc(=O)ccc3c2)C(=O)N1` [Compound 23, 1-(coumarin-6-ylsulfonyl)hydantoin], in assay [2], the “potency compared with compound 13 and 15” value was “as potent as compound 13 and 15”; the IC50 is 220 nM.

On to `O=C1CN(S(=O)(=O)c2cc(Br)c(Br)s2)C(=O)N1` [Compound 25, 1-(4,5-dibromothiophen-2-ylsulfonyl)hydantoin], for which 260 nM corresponded to half-maximal inhibition in assay [2] (IC50).

Regarding `O=C1CN(S(=O)(=O)c2cc3ccc(Cl)cc3s2)C(=O)N1` [Compound 26, 1-(6-chlorobenzo[b]thiophen-2-yl-sulfonyl)hydantoin], in assay [1], the inhibition in vivo at 100 mg/kg was 33.1%. In assay [2], this compound registered an IC50 of 270 nM.

Consider `O=C1CN(S(=O)(=O)c2cc3cccc(Cl)c3s2)C(=O)N1` [Compound 27, 1-(7-chlorobenzo[b]thiophen-2-yl-sulfonyl)hydantoin], for which half-maximal inhibition in assay [2] (IC50) required 190 nM.

`CC(C)c1c(S(=O)(=O)N2CC(=O)NC2=O)sc2ccccc12` [Compound 28, 1-(3-isopropylbenzo[b]thiophen-2-yl-sulfonyl)hydantoin] came in with a concentration for half-maximal inhibition (IC50) in assay [2] of 140 nM.

For the compound `O=C1CN(S(=O)(=O)c2sc3ccccc3c2C(F)(F)F)C(=O)N1` [Compound 29, 1-(3-trifluoromethylbenzo[b]thiophen-2-ylsulfonyl)hydantoin], in assay [2], the IC50 came to 130 nM.

Regarding `O=C1CN(S(=O)(=O)c2sc3ccccc3c2Br)C(=O)N1` [Compound 30, 1-(3-bromobenzo[b]thiophen-2-yl-sulfonyl)hydantoin], the IC50 in assay [2] worked out at 120 nM.

In assay [2], `COc1c(S(=O)(=O)N2CC(=O)NC2=O)sc2ccccc12` [Compound 31, 1-(3-methoxybenzo[b]thiophen-2-yl-sulfonyl)hydantoin] returned an IC50 of 270 nM.

The compound `CS(=O)(=O)c1c(S(=O)(=O)N2CC(=O)NC2=O)sc2ccccc12` [Compound 32, 1-(3-methylsulfonylbenzo[b]thiophen-2-ylsulfonyl)hydantoin] returned an IC50 in assay [2] of 380 nM.

Compound `N#Cc1c(S(=O)(=O)N2CC(=O)NC2=O)sc2ccccc12` [Compound 33, 1-(3-cyanobenzo[b]thiophen-2-yl-sulfonyl)hydantoin] registered an IC50 in assay [2] of 190 nM.

On to `O=C1CN(S(=O)(=O)c2sc3c(F)cccc3c2Br)C(=O)N1` [Compound 34, 1-(3-bromo-7-fluorobenzo[b]thiophen-2-ylsulfonyl)hydantoin], for which the inhibition in vivo at 100 mg/kg in assay [1] was 13.2%. The compound further returned an IC50 in assay [2] of 85 nM.

`O=C1CN(S(=O)(=O)c2c(Cl)sc3ccccc23)C(=O)N1` [Compound 35, 1-(2-chlorobenzo[b]thiophen-3-yl-sulfonyl)hydantoin]: in assay [1], the inhibition in vivo at 100 mg/kg is 14%. In assay [2], it took 300 nM to reach half-maximal inhibition (IC50).

`O=C1CN(S(=O)(=O)c2cc3c(I)cccc3o2)C(=O)N1` [Compound 36, 1-(4-iodobenzo[b]furan-2-ylsulfonyl)hydantoin] displayed an IC50 in assay [2] of 240 nM.

`O=C1CN(S(=O)(=O)c2cc3c(Cl)cc(Cl)cc3o2)C(=O)N1` [Compound 37, 1-(4,6-dichlorobenzo[b]furan-2-yl-sulfonyl)hydantoin]: the inhibition in vivo at 100 mg/kg in assay [1] was determined as 14.5%. Further, in assay [2], the midpoint of inhibition, the IC50, lay at 170 nM.

Regarding `O=C1CN(S(=O)(=O)c2cc3cc(F)ccc3s2)C(=O)N1` [Compound 39, 1-(5-fluorobenzo[b]thiophen-2-yl-sulfonyl)hydantoin], in assay [1], the inhibition in vivo at 100 mg/kg stood at 16%. This compound yielded an IC50 in assay [2] of 320 nM.

Take `O=C1CN(S(=O)(=O)c2nsc3ccccc23)C(=O)N1` [Compound 41, 1-(benzo[b]isothiazol-3-ylsulfonyl)hydantoin]: in assay [1], the inhibition in vivo at 100 mg/kg stood at 23.6%. For the same compound, the IC50 in assay [2] came to 470 nM.

Consider `O=C1CN(S(=O)(=O)c2cc3cc([N+](=O)[O-])ccc3s2)C(=O)N1` [Compound 42, 1-(5-nitrobenzo[b]thiophen-2-yl-sulfonyl)hydantoin], for which half-maximal inhibition in assay [2] (IC50) required 270 nM.

Take `O=C1CN(S(=O)(=O)c2cc3cc(C(=O)O)ccc3s2)C(=O)N1` [Compound 43, 1-(5-carboxybenzo[b]thiophen-2-yl-sulfonyl)hydantoin]: inhibition in assay [2] was half-maximal at 400 nM (IC50).

In turn, `O=C1CN(S(=O)(=O)c2oc3cc(Cl)cc(Cl)c3c2Br)C(=O)N1` [Compound 46, 1-(3-bromo-4,6-dichlorobenzo[b]furan-2-ylsulfonyl)hydantoin] registered an IC50 in assay [2] of 54 nM.

Consider `O=C1CN(S(=O)(=O)c2cc3cccc(F)c3o2)C(=O)N1` [Compound 48, 1-(7-fluorobenzo[b]furan-2-ylsulfonyl)hydantoin], for which the inhibition in vivo at 100 mg/kg in assay [1] stood at 45.9%.

As to `O=C1CN(S(=O)(=O)c2oc3c(F)cccc3c2Br)C(=O)N1` [Compound 49, 1-(3-bromo-7-fluorobenzo[b]furan-2-yl-sulfonyl)hydantoin], the inhibition in vivo at 100 mg/kg in assay [1] was 49.2%.

Turning to `O=C1CN(S(=O)(=O)c2ccc3ccccc3c2F)C(=O)N1` [Compound 50, 1-(1-fluoronaphthalen-2-ylsulfonyl)hydantoin], the inhibition in vivo at 100 mg/kg in assay [1] was 48.8%.

Regarding `O=C1CN(S(=O)(=O)c2cc3c(Br)cccc3o2)C(=O)N1` [Compound 51, 1-(4-bromobenzo[b]furan-2-ylsulfonyl)hydantoin], the inhibition in vivo at 100 mg/kg in assay [1] amounted to 11%.

Regarding `O=C1CN(S(=O)(=O)c2cc3ccc(Br)cc3o2)C(=O)N1` [Compound 52, 1-(6-bromobenzo[b]furan-2-ylsulfonyl)hydantoin], the inhibition in vivo at 100 mg/kg in assay [1] is 29%.

As to `O=C1CN(S(=O)(=O)c2oc3ccccc3c2I)C(=O)N1` [Compound 53, 1-(3-iodobenzo[b]furan-2-ylsulfonyl)hydantoin], the inhibition in vivo at 100 mg/kg in assay [1] came out at 19%.

For the compound `O=C1CN(S(=O)(=O)c2oc3cc(Br)ccc3c2Br)C(=O)N1` [Compound 54, 1-(3,6-dibromobenzo[b]furan-2-yl-sulfonyl)hydantoin], the inhibition in vivo at 100 mg/kg in assay [1] amounted to 29%.

One may read the IC50 as the concentration needed to halve the response being measured. Read a high IC50 as lower potency.
